T1: PcdA (Staphylococcus aureus, UniProt A0A0H2XHA0)
T1 construct: gene SAUSA300_2094; full-length, untagged; His6-SUMO fusion (pTB146, pFRL159) cleaved with Ulp1; expressed in E. coli BL21(DE3)
T1 sequence (A0A0H2XHA0 1-457): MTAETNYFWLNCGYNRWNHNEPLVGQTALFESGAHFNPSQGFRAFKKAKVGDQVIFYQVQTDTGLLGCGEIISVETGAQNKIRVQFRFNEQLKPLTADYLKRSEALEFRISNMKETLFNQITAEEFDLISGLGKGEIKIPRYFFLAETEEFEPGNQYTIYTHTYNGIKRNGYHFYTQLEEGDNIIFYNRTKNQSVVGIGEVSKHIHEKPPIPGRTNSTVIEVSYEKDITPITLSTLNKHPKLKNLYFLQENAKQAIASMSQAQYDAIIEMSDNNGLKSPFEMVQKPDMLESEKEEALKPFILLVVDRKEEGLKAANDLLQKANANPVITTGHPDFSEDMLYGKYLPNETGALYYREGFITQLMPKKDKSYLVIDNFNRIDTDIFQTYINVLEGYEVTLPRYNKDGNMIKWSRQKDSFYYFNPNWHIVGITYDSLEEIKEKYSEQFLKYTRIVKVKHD

B1: FtsZ (purified recombinant untagged S. aureus FtsZ) (natural protein, UniProt P0A031 1-390, looked up)
chain: MLEFEQGFNHLATLKVIGVGGGGNNAVNRMIDHGMNNVEFIAINTDGQALNLSKAESKIQIGEKLTRGLGAGANPEIGKKAAEESREQIEDAIQGADMVFVTSGMGGGTGTGAAPVVAKIAKEMGALTVGVVTRPFSFEGRKRQTQAAAGVEAMKAAVDTLIVIPNDRLLDIVDKSTPMMEAFKEADNVLRQGVQGISDLIAVSGEVNLDFADVKTIMSNQGSALMGIGVSSGENRAVEAAKKAISSPLLETSIVGAQGVLMNITGGESLSLFEAQEAADIVQDAADEDVNMIFGTVINPELQDEIVVTVIATGFDDKPTSHGRKSGSTGFGTSVNTSSNATSKDESFTSNSSNAQATDSVSERTHTTKEDDIPSFIRNREERRSRRTRR
notes: FtsZ, tubulin homolog, Staphylococcus aureus; Polymerised with GMPCPP in the co-sedimentation assay, unpolymerised (no GTP) in the filter retention assay

Experiments:
[1] = target: T1, PcdA; experiment: inorganic phosphate release (PiColorLock); type: biochemical; settings: 50 mM Tris-HCl pH 8.0, 150 mM KCl, 5 mM MgCl2, 37 °C, 0.25-4 mM NTP, 2.5 μM protein
[2] = target: the molecule itself; experiment: co-sedimentation; with 2 mM GMPCPP; 30 μM FtsZ with or without PcdA (5 μM in the legend, 10 μM in the methods); 20 mM HEPES pH 7.5, 140 mM KCl, 5 mM MgCl2; 10 min at 37 °C, then 30 min at 129,000 × g; supernatant and pellet on SDS-PAGE, Coomassie

| Molecule | kcat [1] | binding result [2] |
| --- | --- | --- |
| Nc1ncnc2c1ncn2[C@@H]1O[C@H](COP(=O)(O)OP(=O)(O)OP(=O)(O)O)[C@@H](O)[C@H]1O [ATP] | Incubation of increasing concentrations of either ATP or GTP with PcdA produced saturation curves | – |
| Nc1nc2c(ncn2[C@@H]2O[C@H](COP(=O)(O)OP(=O)(O)OP(=O)(O)O)[C@@H](O)[C@H]2O)c(=O)[nH]1 [GTP] | Incubation of increasing concentrations of either ATP or GTP with PcdA produced saturation curves | – |
| B1 | – | binds |
